US11617741B1, “Method for inhibiting growth of bacteria” (priority 2021, dated 2023)
In brackets after ≈: the same amount, converted by molar mass. Read-outs that look alike come from different tables or passages of the source. Marks after values point to notes of the source that are not given here.

What was measured:
E. coli = test: Minimum inhibitory and bactericidal concentration determination, Gram-negative control; format: cell-based, Escherichia coli; conditions: for MBC E. coli: value in parentheses
Procedure: (§1) The 96-well plate was organized as follows. Media (100 μl) were added to all wells.

glyQS T-box = test: qRT-PCR transcriptional read-through of T-box-regulated glyQS (confirmation of inhibition of T-box mechanism); format: cell-based, Bacillus subtilis 1A5; conditions: for T-Box targeting: confirmation of inhibition of T-box mechanism from qRT-PCR assay; for T-box-controlled expression of glyQS (termination of read-through): B. subtilis 1A5, increasing concentrations, minimal media; for inhibition of read-through compared with PKZ18: 4 μg/ml of each drug, side by side in same biological replicate
Description: Sample preparation of RNA and cDNA.

[1] = tested on: S. aureus N315 (MRSA isolate); test: Minimum inhibitory and bactericidal concentration determination; format: cell-based, Staphylococcus aureus; conditions: for MIC S. aureus N315: Table 2; for MBC S. aureus N315: Table 2, value in parentheses; for change of MIC in minimal media compared to rich media: S. aureus N315; for MIC: Staphylococcus aureus, MRSA
Procedure: as §1

[2] = tested on: T-box controlled genes in MRSA; test: RNA sequencing of MRSA grown in minimal media; format: cell-based, Staphylococcus aureus; conditions: 4 μg/ml, control antibiotic
[3] = tested on: PKZRSA1 (PKZ18-22-resistant MRSA); test: MICs against PKZ18-22-resistant mutant compared to WT MRSA; format: cell-based, Staphylococcus aureus
Procedure: as §1

B. subtilis 168 = test: Minimum inhibitory concentration determination; format: cell-based, Bacillus subtilis
Procedure: as §1

S. aureus N315 (MRSA) = test: Antibiotic resistance frequency (fluctuation assay); format: cell-based, Staphylococcus aureus; conditions: MRSA plated on 64 μg/ml PKZ18-22 or 10 μg/ml gentamicin
Description: Gentamicin on BHI agar was used as a control.

S. aureus N315 = test: Checkerboard assay and FIC; format: cell-based, Staphylococcus aureus
Procedure: S. aureus N315 cultures were prepared identically to MIC determination in BHI media. The co-MICs were determined using the checkerboard method. In short, antibiotics to be tested with PKZ18 analogs were diluted 2-fold top to bottom (A to G rows) in a 96-well plate, PKZ18 analogs were diluted 2-fold right to left (columns 11-2 of the 96-well plate), and column 12 was used for vector, media, and growth controls. Each drug was therefore tested by itself and with every dilution of the other drug.
The synergistic and additive interactions were determined based on determined cutoffs using the equation
[formula] where MICAB is the lowest possible concentration of both drugs combined where there is no growth, and MICA and MICB are the MIC values of the individual drugs. For a synergistic drug interaction, the fractional inhibitory concentration (FIC) should be below 0.5, additive or indifferent effects are considered in an FIC range of 0.5 to <4, and an FIC value above 4 is considered antagonistic.

Row | Molecule | MIC E. coli (E. coli) [µg/mL] | MBC E. coli (E. coli) [µg/mL] | T-Box targeting (glyQS T-box; Table 1) | T-Box targeting (glyQS T-box; Table 2) | MIC S. aureus N315 [1] [µg/mL] | MBC S. aureus N315 [1] [µg/mL] | further results
1 | COc1ccc(-c2csc(NC(=O)C3C4CCC(C4)C3C(=O)O)n2)cc1 (stereo not shown) [PKZ18-55] | > 256 | > 256 | No | No | > 256 | > 256 | –
2 | CCCCCCCCCC(=O)N[C@@H](Cc1c[nH]c2ccccc12)C(=O)N[C@H](CC(N)=O)C(=O)N[C@@H](CC(=O)O)C(=O)N[C@@H]1C(=O)NCC(=O)N[C@@H](CCCN)C(=O)N[C@@H](CC(=O)O)C(=O)N[C@H](C)C(=O)N[C@@H](CC(=O)O)C(=O)NCC(=O)N[C@H](CO)C(=O)N[C@@H]([C@H](C)CC(=O)O)C(=O)N[C@@H](CC(=O)c2ccccc2N)C(=O)O[C@@H]1C [daptomycin, reference compound] | – | – | – | – | – | – | expression and read-through of T-box-controlled genes [2]: lower than untreated for many of the genes; initiation of T-box-controlled genes [2]: did not significantly affect; change in the MIC between WT and PKZRSA1 [3]: no change
3 | C/C(=C\C(=O)OCCCCCCCCC(=O)O)C[C@@H]1OC[C@H](C[C@@H]2O[C@H]2[C@@H](C)[C@H](C)O)[C@@H](O)[C@H]1O [Mupirocin, reference compound] | – | – | – | – | – | – | change of MIC in minimal media compared to rich media [1]: increased MICs; MIC ([1]; S. aureus N315, minimal media, read-out: MIC against S. aureus in minimal media): 1 µg/mL (≈ 2 µM); MIC ([1]; S. aureus N315, rich media, read-out: MIC against S. aureus in rich media): 0.25 µg/mL (≈ 0.499 µM); change in the MIC between WT and PKZRSA1 [3]: no change
4 | O=C(N[C@H](CO)[C@H](O)c1ccc([N+](=O)[O-])cc1)C(Cl)Cl [chloramphenicol] | – | – | – | – | – | – | fold lower MIC for PKZRSA1 than WT MRSA [3]: 2 fold
5 | CCc1ccc(-c2csc(NC(=O)C3C4CCC(C4=C(C)C)C3C(=O)O)n2)cc1 (stereo not shown) [PKZ18-58] | – | – | No | No | – | – | –
6 | CCCCc1ccc(-c2nc(NC(=O)C3C4CCC(O4)C3C(=O)O)sc2C)cc1 (stereo not shown) [PKZ18-54] | > 256 | > 256 | No | No | 128 (≈ 309 µM) | 256 (≈ 618 µM) | –
7 | Gentamicin [reference compound] | – | – | – | – | – | – | MIC against B. subtilis 168 in minimal media (B. subtilis 168; minimal media): 0.25 µg/mL; MIC against B. subtilis 168 in rich media (B. subtilis 168; rich media): 0.125 µg/mL; change of MIC in minimal media compared to rich media [1]: increased MICs; MIC against S. aureus in minimal media ([1]; S. aureus N315, minimal media): 2.0^b μg/ml; MIC against S. aureus in rich media ([1]; S. aureus N315, rich media): 0.5^b μg/ml; fold increase in MIC against PKZRSA1 compared to WT [3]: 2 fold; resistance frequency (S. aureus N315 (MRSA)): 1.6×10^−7; fold decrease in the MIC of gentamicin (S. aureus N315; in combination with PKZ18-22): 8 fold
8 | Cc1sc(NC(=O)C2C3CCC(O3)C2C(=O)O)nc1-c1ccc(CC(C)C)cc1 (stereo not shown) [PKZ18-57] | > 256 | > 256 | No | No | > 256 | > 256 | –
9 | CC(C)c1ccc(-c2csc(NC(=O)C3C4CCC(C4)C3C(=O)O)n2)cc1 (stereo not shown) [PKZ18-21] | > 256 | > 256 | Yes | Yes | 64 (≈ 166 µM) | > 256 | T-box-controlled expression of glyQS (termination of read-through) (glyQS T-box): inhibited
10 | CO[C@H]1/C=C/O[C@@]2(C)Oc3c(C)c(O)c4c(O)c(c(/C=N/N5CCN(C)CC5)c(O)c4c3C2=O)NC(=O)/C(C)=C\C=C\[C@H](C)[C@H](O)[C@@H](C)[C@@H](O)[C@@H](C)[C@H](OC(C)=O)[C@@H]1C [rifampin] | – | – | – | – | – | – | change in the MIC between WT and PKZRSA1 [3]: no change
11 | Cc1onc(-c2ccccc2)c1C(=O)N[C@@H]1C(=O)N2[C@@H]1SC(C)(C)[C@@H]2C(=O)O [oxacillin] | – | – | – | – | – | – | fold increase in MIC against PKZRSA1 compared to WT [3]: 16 fold
12 | Cc1sc(NC(=O)C2C3C=CC(C3)C2C(=O)O)nc1-c1ccc(CC(C)C)cc1 (stereo not shown) [PKZ18-53] | > 256 | > 256 | Yes | Yes | 32 (≈ 77.9 µM) | 64 (≈ 156 µM) | inhibition of read-through compared with PKZ18 (glyQS T-box): significantly better than PKZ18; T-box-controlled expression of glyQS (termination of read-through) (glyQS T-box): inhibited; fold reduction in MIC in minimal compared to rich media ([1]; MRSA strain S. aureus N315): 2 fold; MIC against S. aureus in minimal media ([1]; S. aureus N315, minimal media): 16^b μg/ml; MIC against S. aureus in rich media ([1]; S. aureus N315, rich media): 32^b μg/ml; fractional inhibitory concentration FIC (S. aureus N315; with ampicillin): 0.75; fractional inhibitory concentration FIC (S. aureus N315; with chloramphenicol): 0.75; fractional inhibitory concentration FIC (S. aureus N315; with gentamicin): 0.38
13 | CCCCc1ccc(-c2nc(NC(=O)C3C4C=CC(C4)C3C(=O)O)sc2C)cc1 (stereo not shown) [PKZ18-52] | > 256 | > 256 | Yes | Yes | 32 (≈ 77.9 µM) | 64 (≈ 156 µM) | inhibition of read-through compared with PKZ18 (glyQS T-box): significantly better than PKZ18; T-box-controlled expression of glyQS (termination of read-through) (glyQS T-box): inhibited; MIC against S. aureus in minimal media ([1]; S. aureus N315, minimal media): 16^b μg/ml; MIC against S. aureus in rich media ([1]; S. aureus N315, rich media): 16-32^b μg/ml; fractional inhibitory concentration FIC (S. aureus N315; with gentamicin): 0.38
14 | CCCc1ccc(-c2nc(NC(=O)C3C4CCC(O4)C3C(=O)O)sc2C)cc1 (stereo not shown) [PKZ18-56] | > 256 | > 256 | No | No | > 256 | > 256 | –
